Results reported in patent publication US9409905B2, “Antibacterial compounds and methods for use” (PTC THERAPEUTICS, INC., priority 2011, dated 2016).
Values after ≈ are worked out from the molar mass of the structure shown.

Assays:
[1] = system: Escherichia coli (E. coli) BAS849; assay: Antibacterial activity, microbroth dilution MIC (Table 1); format: cell-based; conditions: microbroth dilution, super sensitive Gram-negative E. coli BAS849, read-out: MIC, BAS849
Outline: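 Values are MICs (μg/mL): the smallest drug amount at which macroscopically visible bacterial growth is absent under assay conditions, from a microdilution method in broth.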

[2] = system: Staphylococcus aureus (S. aureus) 29213; assay: as above; format: cell-based; conditions: microbroth dilution, Gram-positive S. aureus 29213, read-out: MIC, 29213
Outline: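 Lowest concentration stopping macroscopically visible growth under test conditions, by broth microdilution, defines the MIC (μg/mL).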

E. coli 25922 = assay: as above; format: cell-based, Escherichia coli; conditions: Escherichia coli; microbroth dilution; control Gram-negative E. coli 25922 strain; read-out: MIC, 25922
Outline: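 MIC (μg/mL) read as lowest concentration with no macroscopically visible growth; microbroth dilution format. E. coli 25922 served as control Gram-negative strain.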

E. coli LZ3111 = assay: Antibacterial activity, MIC, quinolone resistant strain (Table 2); format: cell-based; conditions: Escherichia coli, LZ3111, read-out: MIC LZ3111
Outline: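 Growth inhibition assessed by serial drug dilution in broth; endpoint was absence of macroscopically visible growth, reported as MIC, μg/mL.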

[3] = system: Acinetobacter baumannii (A. baumannii) BAA747; assay: Antibacterial activity, MIC (Table 4); format: cell-based; conditions: A. baumannii BAA747, read-out: MIC, BAA747
Description: (§1) The antibacterial activity from a microbroth dilution method may be presented as the minimum inhibitory concentration (MIC in μg/mL). The MIC value is the lowest concentration of drug which prevents macroscopically visible growth under test conditions.
(§2) Antibacterial activity of test compounds against the Gram-negative Acinetobacter baumannii (A. baumannii) BAA747 and Klebsiella pneumoniae (K. pneumoniae) 35657 bacterium and the resistant A. baumannii MXX2240 and K. pneumoniae MXX1232 strains are shown in Table 4. The MMX strains are multi-drug resistant clinical isolates.

[4] = system: Klebsiella pneumoniae (K. pneumoniae) 35657; assay: Antibacterial activity, MIC (Table 4); format: cell-based; conditions: K. pneumoniae 35657, read-out: MIC, 35657
Description: as §1, §2

A. baumannii MXX2240 = assay: Antibacterial activity, MIC, resistant strain (Table 4); format: cell-based; conditions: Acinetobacter baumannii, MXX2240; resistant A. baumannii MMX2240, multi-drug resistant clinical isolate; read-out: MIC, MMX2240
Description: as §1, §2

K. pneumoniae MXX1232 = assay: as above; format: cell-based; conditions: Klebsiella pneumoniae, MXX1232; resistant K. pneumoniae MMX1232, multi-drug resistant clinical isolate; read-out: MIC, MMX1232
Description: as §1, §2

[5] = system: Pseudomonas aeruginosa (P. aeruginosa) 27853; assay: Antibacterial activity, MIC (Table 5); format: cell-based; conditions: P. aeruginosa 27853, read-out: MIC, 27853
Description: as §1
Antibacterial activity of test compounds against the Gram-negative bacterium Pseudomonas aeruginosa (P. aeruginosa) 27853 is shown in Table 5.

`CCc1c(-c2ccc3c(c2)cc2n3C[C@H](CN)[C@@H]2NC)[nH]c(=O)c(C(=O)O)c1O.Cl.Cl` (relative stereo) [Cpd 421, 6-(cis-2-(aminomethyl)-1-(methylamino)-2,3-dihydro-1H-pyrrolo[1,2-a]indol-7-yl)-5-ethyl-4-hydroxy-2-oxo-1,2-dihydropyridine-3-carboxylic acid bis-hydrochloride] showed an MIC [1] of 1 to 3.5 µg/mL, an MIC [2] of 12.5 to 150 µg/mL and an MIC (E. coli 25922) of 3.5 to 12.5 µg/mL. For the same compound, the MIC (E. coli LZ3111) was 12.5 to 150 µg/mL, the MIC [3] was 12.5 to 150 µg/mL and the MIC [4] was 12.5 to 150 µg/mL. For the same compound, the MIC (A. baumannii MXX2240) was 12.5 to 150 µg/mL, the MIC (K. pneumoniae MXX1232) was 12.5 to 150 µg/mL and the MIC [5] was 12.5 to 150 µg/mL.
`CCc1cc(C(=O)O)c(=O)[nH]c1-c1ccc2c(c1)cc(CN1CCC(O)C1)n2C` (stereo not shown) [Cpd 125, 5-ethyl-6-(2-((3-hydroxypyrrolidin-1-yl)methyl)-1-methyl-1H-indol-5-yl)-2-oxo-1,2-dihydropyridine-3-carboxylic acid] was tested, and the MIC [1] was < 1 µg/mL, the MIC [2] was 12.5 to 150 µg/mL (≈ 31.6 to 379 µM) and the MIC (E. coli 25922) was 1 to 3.5 µg/mL (≈ 2.53 to 8.85 µM). The MIC (E. coli LZ3111) was 12.5 to 150 µg/mL (≈ 31.6 to 379 µM), the MIC [3] was 12.5 to 150 µg/mL (≈ 31.6 to 379 µM) and the MIC [4] was < 1 µg/mL. The MIC [5] was 12.5 to 150 µg/mL (≈ 31.6 to 379 µM).
In the case of `CCc1cc(C(=O)O)c(=O)[nH]c1-c1ccc2c(c1)cc(CN1CCCC1c1ccccc1)n2C` (stereo not shown) [Cpd 131, 5-ethyl-6-(1-methyl-2-((2-phenylpyrrolidin-1-yl)methyl)-1H-indol-5-yl)-2-oxo-1,2-dihydropyridine-3-carboxylic acid], the MIC [1] is reported as < 1 µg/mL, the MIC [2] is reported as 1 to 3.5 µg/mL (≈ 2.2 to 7.68 µM) and the MIC (E. coli 25922) is reported as 1 to 3.5 µg/mL (≈ 2.2 to 7.68 µM). It also gave an MIC (E. coli LZ3111) of 12.5 to 150 µg/mL (≈ 27.4 to 329 µM), an MIC [3] of 3.5 to 12.5 µg/mL (≈ 7.68 to 27.4 µM) and an MIC [4] of 12.5 to 150 µg/mL (≈ 27.4 to 329 µM). It also gave an MIC [5] of 12.5 to 150 µg/mL (≈ 27.4 to 329 µM).
For `CCc1cc(C(=O)O)c(=O)[nH]c1-c1ccc2c(c1)cc1n2CCC1N1CCOCC1` (stereo not shown) [Cpd 155, 5-ethyl-6-(1-morpholino-2,3-dihydro-1H-pyrrolo[1,2-a]indol-7-yl)-2-oxo-1,2-dihydropyridine-3-carboxylic acid], the MIC [1] was < 1 µg/mL, the MIC [2] was 12.5 to 150 µg/mL (≈ 30.7 to 368 µM) and the MIC (E. coli 25922) was 3.5 to 12.5 µg/mL (≈ 8.59 to 30.7 µM). The MIC (E. coli LZ3111) was 12.5 to 150 µg/mL (≈ 30.7 to 368 µM), the MIC [3] was 12.5 to 150 µg/mL (≈ 30.7 to 368 µM) and the MIC [4] was 3.5 to 12.5 µg/mL (≈ 8.59 to 30.7 µM). For the same compound, the MIC [5] was 12.5 to 150 µg/mL (≈ 30.7 to 368 µM).
In the case of `CCc1cc(C(=O)O)c(=O)[nH]c1-c1ccc2c(c1)cc(CCN1CCOCC1)n2C` [Cpd 162, 5-ethyl-6-(1-methyl-2-(2-morpholinoethyl)-1H-indol-5-yl)-2-oxo-1,2-dihydropyridine-3-carboxylic acid], the MIC [1] is reported as < 1 µg/mL, the MIC [2] is reported as 12.5 to 150 µg/mL (≈ 30.5 to 366 µM) and the MIC (E. coli 25922) is reported as 1 to 3.5 µg/mL (≈ 2.44 to 8.55 µM). The MIC (E. coli LZ3111) was 12.5 to 150 µg/mL (≈ 30.5 to 366 µM), the MIC [3] was 3.5 to 12.5 µg/mL (≈ 8.55 to 30.5 µM) and the MIC [4] was 1 to 3.5 µg/mL (≈ 2.44 to 8.55 µM). It also gave an MIC [5] of 12.5 to 150 µg/mL (≈ 30.5 to 366 µM).
In the case of `CCc1c(-c2ccc3c(c2)cc(CN2C[C@@H]4[C@H](C2)[C@H]4NC)n3C)[nH]c(=O)c(C(=O)O)c1O` [Cpd 208, 5-ethyl-4-hydroxy-6-(1-methyl-2-(((1R,5S,6s)-6-(methylamino)-3-azabicyclo[3.1.0]hexan-3-yl)methyl)-1H-indol-5-yl)-2-oxo-1,2-dihydropyridine-3-carboxylic acid], the MIC [1] is reported as < 1 µg/mL, the MIC [2] is reported as 3.5 to 12.5 µg/mL (≈ 8.02 to 28.6 µM) and the MIC (E. coli 25922) is reported as < 1 µg/mL. The MIC (E. coli LZ3111) was 3.5 to 12.5 µg/mL (≈ 8.02 to 28.6 µM), the MIC (A. baumannii MXX2240) was 12.5 to 150 µg/mL (≈ 28.6 to 344 µM) and the MIC (K. pneumoniae MXX1232) was 12.5 to 150 µg/mL (≈ 28.6 to 344 µM).
`CCc1c(-c2ccc3c(c2)cc(CNCc2ccccc2)n3C)[nH]c(=O)c(C(=O)O)c1O.Cl` [Cpd 214, 6-(2-((benzylamino)methyl)-1-methyl-1H-indol-5-yl)-5-ethyl-4-hydroxy-2-oxo-1,2-dihydropyridine-3-carboxylic acid hydrochloride] was tested, and the MIC [1] was < 1 µg/mL, the MIC [2] was 1 to 3.5 µg/mL and the MIC (E. coli 25922) was < 1 µg/mL. It also gave an MIC (E. coli LZ3111) of 12.5 to 150 µg/mL, an MIC [4] of 12.5 to 150 µg/mL and an MIC (K. pneumoniae MXX1232) of 12.5 to 150 µg/mL.
In the case of `CCc1c(-c2ccc3c(c2)cc(CNCc2cccnc2)n3C)[nH]c(=O)c(C(=O)O)c1O.Cl` [Cpd 220, 5-ethyl-4-hydroxy-6-(1-methyl-2-((pyridin-3-ylmethylamino)methyl)-1H-indol-5-yl)-2-oxo-1,2-dihydropyridine-3-carboxylic acid hydrochloride], the MIC [1] is reported as < 1 µg/mL, the MIC [2] is reported as 1 to 3.5 µg/mL and the MIC (E. coli 25922) is reported as < 1 µg/mL. For the same compound, the MIC (E. coli LZ3111) was 12.5 to 150 µg/mL, the MIC [4] was 3.5 to 12.5 µg/mL and the MIC (K. pneumoniae MXX1232) was 12.5 to 150 µg/mL.
With `CCc1c(-c2ccc3c(c2)cc(CNCc2ccncc2)n3C)[nH]c(=O)c(C(=O)O)c1O.Cl` [Cpd 221, 5-ethyl-4-hydroxy-6-(1-methyl-2-((pyridin-4-ylmethylamino)methyl)-1H-indol-5-yl)-2-oxo-1,2-dihydropyridine-3-carboxylic acid hydrochloride] the MIC [1] was < 1 µg/mL, the MIC [2] was 1 to 3.5 µg/mL and the MIC (E. coli 25922) was 1 to 3.5 µg/mL. The MIC (E. coli LZ3111) was 12.5 to 150 µg/mL, the MIC [4] was 1 to 3.5 µg/mL and the MIC (K. pneumoniae MXX1232) was 12.5 to 150 µg/mL.
With `CCc1c(-c2ccc3c(c2)cc(CN2CCC(O)CC2)n3C)[nH]c(=O)c(C(=O)O)c1O` [Cpd 254, 5-ethyl-4-hydroxy-6-(2-((4-hydroxypiperidin-1-yl)methyl)-1-methyl-1H-indol-5-yl)-2-oxo-1,2-dihydropyridine-3-carboxylic acid] the MIC [1] was < 1 µg/mL, the MIC [2] was 3.5 to 12.5 µg/mL (≈ 8.23 to 29.4 µM) and the MIC (E. coli 25922) was 1 to 3.5 µg/mL (≈ 2.35 to 8.23 µM). It also gave an MIC (E. coli LZ3111) of 12.5 to 150 µg/mL (≈ 29.4 to 353 µM), an MIC [4] of 3.5 to 12.5 µg/mL (≈ 8.23 to 29.4 µM) and an MIC (K. pneumoniae MXX1232) of 12.5 to 150 µg/mL (≈ 29.4 to 353 µM).
